# Assay results as given in ChEMBL document CHEMBL4665667, “Lowering Lipophilicity by Adding Carbon: AzaSpiroHeptanes, a logD Lowering Twist” (ACS Med Chem Lett, 2019).
# Key:
# [1] = Lipophilicity, logD of compound at pH 7.4 by Shake-flask distribution coefficient method; format: physicochemical; conditions: octanol/water
# [2] = Apparent permeability in human Caco2 cells at 10 uM; format: ADME, cell-based; conditions: Caco-2
# [3] = Intrinsic clearance in human liver microsomes; format: ADME, Microsome; conditions: read-out: CLH
# [4] = Intrinsic clearance in rat hepatocytes assessed per 10^6 cells; format: ADME, cell-based, Hepatocyte; conditions: read-out: CLH
# [5] = Intrinsic clearance in human hepatocytes assessed per 10^6 cells; format: ADME, cell-based, Hepatocyte; conditions: read-out: CLH
# [6] = Dissociation constant, pKa of compound; format: physicochemical
# [7] = Lipophilicity, logD of compound in octanol and buffer in pH 7.4 incubated for 30 mins under shaking condition by LC/UV analysis; format: physicochemical
# [8] = Apparent permeability across apical to basolateral side in MDCK cells incubated at 10 uM; format: ADME, cell-based, Canis lupus familiaris; conditions: dog
# [9] = target: T1, Glucose-dependent insulinotropic receptor (Homo sapiens, UniProt Q8TDV5); test: Agonist activity at human GPR119 expressed in HEK293 cells assessed as increase in cAMP level incubated for 45 mins by cAMP HTRF assay; format: functional, cell-based
# T1 sequence (Q8TDV5 whole entry): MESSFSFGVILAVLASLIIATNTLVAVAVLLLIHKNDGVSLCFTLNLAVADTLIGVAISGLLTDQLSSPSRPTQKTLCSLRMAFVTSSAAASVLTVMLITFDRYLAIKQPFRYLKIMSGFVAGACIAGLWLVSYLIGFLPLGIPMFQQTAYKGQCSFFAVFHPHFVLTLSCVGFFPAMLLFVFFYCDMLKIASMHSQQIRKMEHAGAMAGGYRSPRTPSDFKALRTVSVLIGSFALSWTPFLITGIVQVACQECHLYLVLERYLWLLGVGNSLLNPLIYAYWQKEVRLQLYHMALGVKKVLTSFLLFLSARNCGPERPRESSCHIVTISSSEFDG
compound,measurement,setting,value
c1nc(N[C@H]2CC[C@H](N3CC4(COC4)C3)CC2)c2c(C3CCOCC3)c[nH]c2n1,logD,[1],0.8
same,Papp at 10 µM,[2],4.1 ×10⁻⁶ cm/s
same,microsomal CLint,[3],< 3 µL/min/mg
same,hepatocyte CLint,[4],8 µL/min/1e6 cells
same,hepatocyte CLint,[5],< 1 µL/min/1e6 cells
same,pKa,[6],8.2
CC(C)(C)OC(=O)N1CC2(C1)CN(c1ncc(OCc3ccncc3C#N)cn1)C2,logD at 0.5 h,[7],2.5
same,Papp A→B at 10 µM,[8],17 ×10⁻⁶ cm/s
same,EC50,[9],16 µM
